This assay relates to E. multilocularis metacestodes. The assay is described as follows: PGI-assay: drug-induced damage on in vitro cultured metacestodes (Pathogen Box screening cascade and EC50). The assay is classed as cell-based, Echinococcus multilocularis. Particulars: for PGI release, % of the Tx-100 control, 5d / PGI release, % of the Tx-100 control, 12d: 10 µM, singlets; for PGI release, % of the Tx-100 control, 5d / PGI release, % of Tx-100 control, average, 5d: 5 days of incubation; for PGI release, % of the Tx-100 control, 12d / PGI release, % of Tx-100 control, average, 12d: 12 days of incubation.

[1] abbreviates: confirmatory screening at 10 µM in triplicates, values as % of Tx-100 control.

Structures are written as SMILES.

The source of these data is article PMC6216040, “Repurposing of an old drug: In vitro and in vivo efficacies of buparvaquone against Echinococcus multilocularis” (International Journal for Parasitology: Drugs and Drug …, 2018).

With `O=C(C1CCN(c2cc(-n3cccc3)ncn2)CC1)N1CCc2ccccc2C1` [MMV687172], the “PGI release, % of the Tx-100 control, 5d” value turned out to be 1.69% and the “PGI release, % of the Tx-100 control, 12d” value is recorded as -1.50%.

For the molecule `CCc1ccc([C@@H]2C[C@H](C(F)(F)F)n3ncc(C(=O)NCc4ccc(OC)cc4)c3N2)cc1` [MMV687180], the “PGI release, % of the Tx-100 control, 5d” value is -2.14% and the “PGI release, % of the Tx-100 control, 12d” value was -5.92%.

For `COc1ccc2nc(C)cc(OCC(=O)Nc3ccccc3OC)c2c1` [MMV687188], the “PGI release, % of the Tx-100 control, 5d” value was determined as 0.23% and the “PGI release, % of the Tx-100 control, 12d” value is listed as 4.44%.

Regarding `COc1ccc2nc(C)cc(OCC(=O)NCc3ccccc3)c2c1` [MMV687189], the “PGI release, % of the Tx-100 control, 5d” value is -4.79% and the “PGI release, % of the Tx-100 control, 12d” value is on record as 3.07%.

With `CC(C)(C(=O)Nc1ccc(F)cc1)n1cc(-c2ccccc2F)cn1` [MMV687239], the “PGI release, % of the Tx-100 control, 5d” value is reported as 0.07% and the “PGI release, % of the Tx-100 control, 12d” value came out at 101.93%. For the same molecule, under setting [1], the “PGI release, % of Tx-100 control, average, 5d” value (from here on “PGI release, % … average, 5d”) is on record as -0.64% and the “PGI release, % of Tx-100 control, average, 12d” value (shortened to “PGI release, % … average, 12d”) is recorded as -1.06%.

For `NC(=O)c1cc(Br)ccc1OCCOc1ccccc1` [MMV687243], the “PGI release, % of the Tx-100 control, 5d” value turned out to be 1.02% and the “PGI release, % of the Tx-100 control, 12d” value is -1.47%.

As to `CN1CCN(S(=O)(=O)c2ccc(-c3ccc4c(Nc5ccc6n[nH]nc6c5)ccnc4c3)cc2)CC1` [MMV687246], the “PGI release, % of the Tx-100 control, 5d” value is given as -0.71% and the “PGI release, % of the Tx-100 control, 12d” value is listed as -0.69%.

`Nc1nc2cc(-c3cncc(Oc4ccc(F)cc4)c3)ccc2[nH]1` [MMV687248]: the “PGI release, % of the Tx-100 control, 5d” value is given as 2.44% and the “PGI release, % of the Tx-100 control, 12d” value is reported as 3.04%.

On to `Cn1c(=O)c2c(S(C)(=O)=O)snc2n(C)c1=O` [MMV687251], for which the “PGI release, % of the Tx-100 control, 5d” value is on record as 5.41% and the “PGI release, % of the Tx-100 control, 12d” value was found to be 6.23%.

Turning to `CCCCc1ccc(C(=O)Nc2nccc3ccccc23)nc1` [MMV687254], the “PGI release, % of the Tx-100 control, 5d” value is reported as -0.76% and the “PGI release, % of the Tx-100 control, 12d” value is -1.68%.

As for `CC(C)=CCC/C(C)=C\CNCCNC1C2CC3CC(C2)CC1C3` (centres unmarked) [MMV687273], the “PGI release, % of the Tx-100 control, 5d” value is reported as 8.55% and the “PGI release, % of the Tx-100 control, 12d” value is reported as 5.83%.

For `CCc1nc2ccc(Cl)cn2c1C(=O)NCc1ccc(N2CCC(c3ccc(OC(F)(F)F)cc3)CC2)cc1` [MMV687696, Telacebec, Q203, reference compound], the “PGI release, % of the Tx-100 control, 5d” value is recorded as -1.48% and the “PGI release, % of the Tx-100 control, 12d” value is recorded as 7.51%.

Turning to `O=C(NCc1cc(Cl)cc(Cl)c1)c1c(C(F)(F)F)nc2ccccn12` [MMV687699], the “PGI release, % of the Tx-100 control, 5d” value was 0.90% and the “PGI release, % of the Tx-100 control, 12d” value is recorded as 18.76%.

As to `Nc1ncnc2c1ncn2[C@@H]1O[C@H](COS(=O)(=O)NC(=O)c2ccccc2O)[C@@H](O)[C@H]1O` [MMV687700, Salicyl-AMS, reference compound], the “PGI release, % of the Tx-100 control, 5d” value is -0.78% and the “PGI release, % of the Tx-100 control, 12d” value is reported as -1.38%.

`COc1cccc(-c2nc3c(N4CCCC4)cccc3n2CC2CCCN2)n1` (centres unmarked) [MMV687703]: the “PGI release, % of the Tx-100 control, 5d” value stood at 1.13% and the “PGI release, % of the Tx-100 control, 12d” value was -0.35%.

Take `c1ccc(Oc2ccc(-c3cc(N4CCNCC4)[nH]n3)cc2)cc1` [MMV687706]: the “PGI release, % of the Tx-100 control, 5d” value is on record as -0.18% and the “PGI release, % of the Tx-100 control, 12d” value stood at 0.70%.

As for `O=C1O[C@@H](CO)CN1c1cc(F)c(C2=CCN(Cc3ccccc3)CC2)c(F)c1` [MMV687729], the “PGI release, % of the Tx-100 control, 5d” value was -0.40% and the “PGI release, % of the Tx-100 control, 12d” value is on record as -0.63%.

For the molecule `CCCCOC(=O)Nc1cc2[nH]c(C3CCCCC3)nc2cc1N1CCCC1` [MMV687730], the “PGI release, % of the Tx-100 control, 5d” value was 5.43% and the “PGI release, % of the Tx-100 control, 12d” value was found to be 56.57%. For the same molecule, under “1 µM, triplicates”, the “PGI release, % … average, 5d” value was 3.65% and the “PGI release, % … average, 12d” value was -3.14%. For the same molecule, the “activity in the screen at 10 μM (confirmed in triplicates, >20% relative PGI release)” value (10 μM, 5 and 12 days) is given as “active”. Under setting [1], the “PGI release, % … average, 5d” value is 22.60% and the “PGI release, % … average, 12d” value is listed as 45.66%.

With `Cc1cc(OCC(=O)NCc2ccccc2)c2cc(Br)ccc2n1` [MMV687747], the “PGI release, % of the Tx-100 control, 5d” value is -0.47% and the “PGI release, % of the Tx-100 control, 12d” value was 1.30%.

On to `c1ccc(C[C@@H]2CN(c3nccc(Oc4ccc(-n5ccnc5)cc4)n3)CCN2)cc1` [MMV687749], for which the “PGI release, % of the Tx-100 control, 5d” value is recorded as 5.87% and the “PGI release, % of the Tx-100 control, 12d” value turned out to be 6.61%.
